In brackets after ≈: the same amount, converted by molar mass.
Assays:
Type in all cases: functional
Streptococcus pneumoniae = experiment: In vitro antibacterial activity against Streptococcus pneumoniae PARK
Escherichia coli = experiment: In vitro antibacterial activity against Escherichia coli EC14
Pseudomonas aeruginosa = experiment: In vitro antibacterial activity against Pseudomonas X239
Staphylococcus aureus = experiment: In vitro antibacterial activity against Staphylococcus aureus X1.1
Klebsiella aerogenes = experiment: In vitro antibacterial activity against Enterobacter aerogenes C32
Serratia marcescens = experiment: In vitro antibacterial activity against Serratia X99
Haemophilus influenzae = experiment: In vitro antibacterial activity against Haemophilus influenza C.L
Klebsiella pneumoniae = experiment: In vitro antibacterial activity against Klebsiella X26

SMILES | MIC (Streptococcus pneumoniae) [µg/mL] | MIC (Escherichia coli) [µg/mL] | MIC (Pseudomonas aeruginosa) [µg/mL] | MIC (Staphylococcus aureus) [µg/mL] | MIC (Klebsiella aerogenes) [µg/mL] | MIC (Serratia marcescens) [µg/mL] | MIC (Haemophilus influenzae) [µg/mL] | MIC (Klebsiella pneumoniae) [µg/mL]
CO/N=C(\C(=O)NC1CN2CC(S(C)(=O)=O)=C(C(=O)O)N2C1=O)c1csc(N)n1 (configuration not stated) | 0.25 (≈ 0.562 µM) | 0.125 (≈ 0.281 µM) | > 128 | 64 (≈ 144 µM) | 0.25 (≈ 0.562 µM) | 0.25 (≈ 0.562 µM) | 2 (≈ 4.5 µM) | 0.25 (≈ 0.562 µM)
CO/N=C(\C(=O)NC1CN2CC(C(=O)OCc3ccccc3)=C(C(=O)O)N2C1=O)c1csc(N)n1 (configuration not stated) | 64 (≈ 128 µM) | 64 (≈ 128 µM) | > 128 | 128 (≈ 256 µM) | 64 (≈ 128 µM) | 64 (≈ 128 µM) | 64 (≈ 128 µM) | 64 (≈ 128 µM)
CO/N=C(\C(=O)N[C@H]1CN2CC(C#N)=C(C(=O)O)N2C1=O)c1csc(N)n1 | 0.25 (≈ 0.639 µM) | 0.25 (≈ 0.639 µM) | > 128 | 64 (≈ 164 µM) | 1 (≈ 2.56 µM) | 1 (≈ 2.56 µM) | 0.5 (≈ 1.28 µM) | 0.25 (≈ 0.639 µM)
CO/N=C(\C(=O)NC1CN2CCC(C(C)=O)=C(C(=O)O)N2C1=O)c1csc(N)n1 (configuration not stated) | > 128 | > 128 | > 128 | > 128 | > 128 | > 128 | > 128 | > 128
CO/N=C(\C(=O)NC1CN2CC(C(=O)OC)=C(C(=O)O)N2C1=O)c1csc(N)n1 (configuration not stated) | 8 (≈ 18.9 µM) | 8 (≈ 18.9 µM) | > 128 | > 128 | 16 (≈ 37.7 µM) | 8 (≈ 18.9 µM) | 32 (≈ 75.4 µM) | 8 (≈ 18.9 µM)
CCOC(=O)C1=C(C(=O)O)N2C(=O)C(NC(=O)/C(=N\OC)c3csc(N)n3)CN2C1 (configuration not stated) | 8 (≈ 18.2 µM) | 16 (≈ 36.5 µM) | > 128 | > 128 | 32 (≈ 73 µM) | 16 (≈ 36.5 µM) | 32 (≈ 73 µM) | 8 (≈ 18.2 µM)
CCCOC(=O)C1=C(C(=O)O)N2C(=O)C(NC(=O)/C(=N\OC)c3csc(N)n3)CN2C1 (configuration not stated) | 8 (≈ 17.7 µM) | 32 (≈ 70.7 µM) | > 128 | > 128 | 64 (≈ 141 µM) | 32 (≈ 70.7 µM) | 32 (≈ 70.7 µM) | 8 (≈ 17.7 µM)
CO/N=C(\C(=O)N[C@H]1CN2CC(S(=O)(=O)c3ccccc3)=C(C(=O)O)N2C1=O)c1csc(N)n1 | 0.125 (≈ 0.247 µM) | 0.5 (≈ 0.987 µM) | > 128 | 32 (≈ 63.2 µM) | 1 (≈ 1.97 µM) | 1 (≈ 1.97 µM) | 0.5 (≈ 0.987 µM) | 0.125 (≈ 0.247 µM)
CO/N=C(\C(=O)N[C@H]1CN2CC(S(C)(=O)=O)=C(C(=O)O)N2C1=O)c1csc(N)n1 | 0.25 (≈ 0.562 µM) | 0.06 (≈ 0.135 µM) | > 128 | 32 (≈ 72 µM) | 0.25 (≈ 0.562 µM) | 0.125 (≈ 0.281 µM) | 0.5 (≈ 1.12 µM) | 0.125 (≈ 0.281 µM)
CCS(=O)(=O)C1=C(C(=O)O)N2C(=O)[C@@H](NC(=O)/C(=N\OC)c3csc(N)n3)CN2C1 | 0.125 (≈ 0.273 µM) | 0.125 (≈ 0.273 µM) | > 128 | 32 (≈ 69.8 µM) | 0.25 (≈ 0.545 µM) | 0.25 (≈ 0.545 µM) | 0.5 (≈ 1.09 µM) | 0.125 (≈ 0.273 µM)
CCC(=O)C1=C(C(=O)O)N2C(=O)C(NC(=O)/C(=N\OC)c3csc(N)n3)CN2C1 (configuration not stated) | 2 (≈ 4.73 µM) | 4 (≈ 9.47 µM) | > 128 | 64 (≈ 152 µM) | 8 (≈ 18.9 µM) | 4 (≈ 9.47 µM) | 8 (≈ 18.9 µM) | 2 (≈ 4.73 µM)
CO/N=C(\C(=O)NC1CN2CC(C#N)=C(C(=O)O)N2C1=O)c1csc(N)n1 (configuration not stated) | 0.5 (≈ 1.28 µM) | 0.5 (≈ 1.28 µM) | > 128 | 64 (≈ 164 µM) | 2 (≈ 5.11 µM) | 2 (≈ 5.11 µM) | 1 (≈ 2.56 µM) | 0.5 (≈ 1.28 µM)
CO/N=C(\C(=O)NC1CN2CC(C(C)=O)=C(C(=O)O)N2C1=O)c1csc(N)n1 (configuration not stated) | 1 (≈ 2.45 µM) | 2 (≈ 4.9 µM) | > 128 | 32 (≈ 78.4 µM) | 2 (≈ 4.9 µM) | 4 (≈ 9.79 µM) | 8 (≈ 19.6 µM) | 1 (≈ 2.45 µM)
CO/N=C(\C(=O)NC1CN2CCC(C(=O)OC)=C(C(=O)O)N2C1=O)c1csc(N)n1 (configuration not stated) | > 128 | > 128 | > 128 | > 128 | > 128 | > 128 | > 128 | > 128

Reference: ChEMBL document CHEMBL1126957, “Structure-activity relationship within a series of pyrazolidinone antibacterial agents. 1. Effect of nuclear modification on in vitro activity” (1993)
